Measured values as given in patent publication US9763942B2, “Serine/threonine kinase inhibitors” (Array BioPharma Inc., priority 2013, dated 2017).
Like-named read-outs stand apart in the source and are kept apart here.

Columns and labels:
[1] = tested on: PMA-stimulated P90RSK(Ser380) phosphorylation in HepG2 cells; assay: Cellular P90RSK(Ser380) Phosphorylation Assay; type: cell-based; settings: Homo sapiens, 1.5 hours compound incubation, PMA 100 ng/mL 30 minutes, pP90RSK(Ser380) signal normalized to GAPDH, single assay or mean of multiple assays, read-out: Biological Example 2 IC50
Procedure: Inhibition of PMA-stimulated P90RSK(Ser380) phosphorylation was determined by the following in vitro cellular mechanistic assay, which comprises incubating cells with a compound for 1.5 hours and quantifying fluorescent pP90RSK(Ser380) signal on fixed cells and normalizing to GAPDH signal.
HepG2 cells were obtained from ATCC and grown in DMEM supplemented with 10% fetal bovine serum. Cells were plated in 96-well plates at 35,000 cells/well and allowed to attach overnight at 37° C./5% CO2. Diluted compounds were then added at a final concentration of 0.5% DMSO. After 1.5 hours compound incubation, cells were stimulated with the addition of phorbol 12-myristate 13-acetate (“PMA”) at a final concentration of 100 ng/mL; the PMA stimulation was a 30-minute incubation at 37° C./5% CO2. After the 30-minute PMA stimulation, cells were washed with phosphate buffered saline (“PBS”) and fixed in 3.7% formaldehyde in PBS at room temperature for 15-20 minutes. This was followed by another wash in PBS and then permeabilization in 100% MeOH at room temperature for 10-15 minutes. Following the permeabilization incubation, cells were washed in PBS/0.05% Tween-20, followed by a block in Odyssey blocking buffer (LI-COR Biosciences) for at least 1 hour. Antibodies to phosphorylated P90RSK(Ser380) (Cell Signaling #9335, rabbit monoclonal) and GAPDH (Fitzgerald 10R-G109a, mouse monoclonal) were added to the cells and incubated overnight at 4° C. pP90RSK(Ser380) antibody was used at a 1:250 dilution; GAPDH was used at a 1:10,000 dilution. After washing with PBS/0.05% Tween-20, the cells were incubated with fluorescently-labeled secondary antibodies (Anti-rabbit-Alexa Flour680, Invitrogen Cat#A21109; Anti-mouse-IRDye800CW, Rockland Inc. Cat#610-131-121) for 1 hour. Both secondary antibodies were used at a 1:1000 dilution. Cells were then washed and analyzed for fluorescence at both wavelengths using the Odyssey Infrared Imaging System (LI-COR Biosciences). Phosphorylated P90RSK(Ser380) signal was normalized to GAPDH signal.

[2] = target: T1, human ERK-2 (Mitogen Activated Kinase 1) (Homo sapiens, UniProt P28482); assay: ERK-2 Enzymatic Assay; type: biochemical
T1 construct: n-terminal 6-His fusion protein in E. coli and corresponding to aa 8-360; 6-His (N); made in house; host or cells: E. coli
Description: Table 1 contains representative data for Examples disclosed herein.

[3] = 5 nM ERK-2 enzyme, 25 μM ATP (observed Km), Omnia peptide S/T17, single assay or mean of multiple assays, read-out: Biological Example 1 IC50
[4] = ERK-2 enzymatic assay, read-out: IC50

T1 sequence (P28482 8-360): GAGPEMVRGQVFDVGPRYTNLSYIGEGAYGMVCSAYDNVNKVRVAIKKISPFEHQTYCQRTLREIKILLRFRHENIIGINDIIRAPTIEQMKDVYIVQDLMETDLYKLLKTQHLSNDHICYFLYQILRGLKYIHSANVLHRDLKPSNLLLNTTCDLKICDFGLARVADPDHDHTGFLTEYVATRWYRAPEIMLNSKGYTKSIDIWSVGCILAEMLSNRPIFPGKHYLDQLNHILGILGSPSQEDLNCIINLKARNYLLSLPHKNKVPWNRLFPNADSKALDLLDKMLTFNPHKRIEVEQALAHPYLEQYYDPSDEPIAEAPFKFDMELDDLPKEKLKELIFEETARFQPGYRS

| SMILES | IC50 [2, 3] | IC50 [2, 4] | IC50 [1] |
| --- | --- | --- | --- |
| COc1ccc(Cn2nnc3cc(-c4ccnc(N[C@@H]5CCOC[C@H]5F)n4)ccc32)cc1F [Example 6, 4-(1-(3-fluoro-4-methoxybenzyl)-1H-benzoyl[d][1,2,3]triazol-5-yl)-N-((3S,4R)-3-fluorotetrahydro-2H-pyran-4-yl)pyrimidin-2-amine] | 2.6 nM | < 100 nM | 58.2 nM |
| CN1CC(n2nnc3cc(-c4ccnc(Nc5ccnn5C)n4)ccc32)C1 [Example 86, N-(1-methyl-1H-pyrazol-5-yl)-4-(1-(1-methylazetidin-3-yl)-1H-benzo[d][1,2,3]triazol-5-yl)pyrimidin-2-amine] | 2.8 nM | < 100 nM | 21.8 nM |
| CCOCCCn1nnc2cc(-c3ccnc(Nc4ccnn4C)n3)ccc21 [Example 43, 4-(1-(3-ethoxypropyl)-1H-benzo[d][1,2,3]triazol-5-yl)-N-(1-methyl-1H-pyrazol-5-yl)pyrimidin-2-amine] | 5.7 nM | < 100 nM | 68.5 nM |
| COc1ccc([C@@H](c2cnn(C)c2)n2nnc3cc(-c4ccnc(Nc5ccnn5C)n4)ccc32)cc1F [Example 70] | 1.7 nM | < 100 nM | 79.1 nM |
| COc1ccc(Cn2nnc3cc(-c4ccnc(Nc5cn(C)nc5C)n4)ccc32)cc1F [Example 8, N-(1,3-dimethyl-1H-pyrazol-4-yl)-4-(1-(3-fluoro-4-methoxybenzyl)-1H-benzo[d][1,2,3]triazol-5-yl)pyrimidin-2-amine] | 2.9 nM | < 100 nM | 56.8 nM |
| COc1ccc(Cn2nnc3cc(-c4ccnc(Nc5ccnn5C)n4)cnc32)cc1F [Example 5, 4-(3-(3-fluoro-4-methoxybenzyl)-3H-[1,2,3]triazolo[4,5-b]pyridin-6-yl)-N-(1-methyl-1H-pyrazol-5-yl)pyrimidin-2-amine] | 2.5 nM | < 100 nM | 16.8 nM |
| Cn1nccc1Nc1nccc(-c2ccc3c(c2)nnn3CCn2cc(Cl)cn2)n1 [Example 4, 4-(1-(2-(4-chloro-1H-pyrazol-1-yl)ethyl)-1H-benzo[d][1,2,3]triazol-5-yl)-N-(1-methyl-1H-pyrazol-5-yl)pyrimidin-2-amine] | 1.9 nM | < 100 nM | 3.2 nM |
| Cn1nccc1Nc1nccc(-c2ccc3c(c2)nnn3Cc2cccc(F)c2F)n1 [Example 1, 4-(1-(2,3-difluorobenzyl)-1H-benzo[1,2,3]triazol-5-yl)-N-(1-methyl-1H-pyrazol-5-yl)pyrimidin-2-amine] | 0.9 nM | < 100 nM | 22.7 nM |
| Cc1ncccc1Cn1nnc2cc(-c3ccnc(Nc4ccnn4C)c3)ccc21 [Example 56, N-(1-methyl-1H-pyrazol-5-yl)-4-(1-((2-methylpyridin-3-yl)methyl)-1H-benzo[d][1,2,3]triazol-5-yl)pyridin-2-amine] | 7.8 nM | < 100 nM | 781 nM |
| CN1C[C@@H](n2nnc3cc(-c4ccnc(Nc5ccnn5C)n4)ccc32)[C@H](c2ccc(F)cc2F)C1 [Example 74, 4-(1-((3S,4R)-4-(2,4-difluorophenyl)-1-methylpyrrolidin-3-yl)-1H-benzo[d][1,2,3]triazol-5-yl)-N-(1-methyl-1H-pyrazol-5-yl)pyrimidin-2-amine] | – | < 100 nM | – |
| COc1ccc(Cn2nnc3cc(-c4ccnc(Nc5nnc(C)s5)n4)ccc32)cc1F [Example 11, N-(4-(1-(3-fluoro-4-methoxybenzyl)-1H-benzol[d][1,2,3]triazol-5-yl)pyrimidin-2-yl)-5-methyl-1,3,4-thiadiazol-2-amine] | – | < 100 nM | – |
| CC(O)CCn1nnc2cc(-c3ccnc(Nc4ccnn4C)n3)ccc21 (stereo not drawn) [Example 41, 4-(5-(2-((1-methyl-1H-pyrazol-5-yl)amino)pyrimidin-4-yl)-1H-benzo[d][1,2,3]triazol-1-yl)butan-2-ol] | – | < 100 nM | – |
| Cn1nccc1Nc1nccc(-c2ccc3c(c2)nnn3CC(C)(C)O)n1 [Example 60, 2-methyl-1-(5-(2-((1-methyl-1H-pyrazol-5-yl)amino)pyrimidin-4-yl)-1H-benzo[d][1,2,3]triazol-1-yl)propan-2-ol] | – | < 100 nM | – |
| CN1C[C@@H](n2nnc3cc(-c4ccnc(Nc5ccnn5C)n4)ccc32)[C@H](c2ccc(F)c(F)c2)C1 [Example 75, 4-(1-((3S,4R)-4-(3,4-difluorophenyl)-1-methylpyrrolidin-3-yl)-1H-benzo[d][1,2,3]triazol-5-yl)-N-(1-methyl-1H-pyrazol-5-yl)pyrimidin-2-amine] | – | < 100 nM | – |
| Cn1nccc1Nc1nccc(-c2ccc3c(c2)nnn3Cc2cccnc2Cl)n1 [Example 66, 4-(1-((2-chloropyridin-3-yl)methyl)-1H-benzo[d][1,2,3]triazol-5-yl)-N-(1-methyl-1H-pyrazol-5-yl)pyrimidin-2-amine] | – | < 100 nM | – |
| Cn1nccc1Nc1nccc(-c2ccc3c(c2)nnn3CC2CC(F)(F)C2)n1 [Example 34, 4-(1-((3,3-difluorocyclobutyl)methyl)-1H-benzo[d][1,2,3]triazol-5-yl)-N-(1-methyl-1H-pyrazol-5-yl)pyrimidin-2-amine] | – | < 100 nM | – |

Second part, led by results:

| IC50 [2, 3] | IC50 [2, 4] | SMILES | IC50 [1] |
| --- | --- | --- | --- |
| – | < 100 nM | Cn1nccc1Nc1nccc(-c2ccc3c(c2)nnn3Cc2ccc(Cl)c(F)c2)n1 [Example 108, 4-(1-(4-chloro-3-fluorobenzyl)-1H-benzo[d][1,2,3]triazol-5-yl)-N-(1-methyl-1H-pyrazol-5-yl)pyrimidin-2-amine] | – |
| – | < 100 nM | Cn1nccc1Nc1nccc(-c2cnc3c(c2)nnn3Cc2cccc(Cl)c2)n1 [Example 124, 4-(3-(3-chlorobenzyl)-3H-[1,2,3]triazolo[4,5-b]pyridin-6-yl)-N-(1-methyl-1H-pyrazol-5-yl)pyrimidin-2-amine] | – |
| – | < 100 nM | Fc1cccc(Cn2nnc3cc(-c4ccnc(NC5CCOCC5)n4)ccc32)c1 [Example 107, 4-(1-(3-fluorobenzyl)-1H-benzo[d][1,2,3]triazol-5-yl)-N-(tetrahydro-2H-pyran-4-yl)pyrimidin-2-amine] | – |
| – | < 100 nM | Cn1nccc1Nc1nccc(-c2ccc3c(c2)nnn3C(CN2CCCC2)c2ccc(Cl)c(F)c2)n1 (stereo not drawn) [Example 92, 4-(1-(1-(4-chloro-3-fluorophenyl)-2-(pyrrolidin-1-yl)ethyl)-1H-benzo[d][1,2,3]triazol-5-yl)-N-(1-methyl-1H-pyrazol-5-yl)pyrimidin-2-amine] | – |
| – | < 100 nM | Cn1nccc1Nc1nccc(-c2ccc3c(c2)nnn3Cc2cccc(Cl)c2)n1 [Example 117, 4-(1-(3-chlorobenzyl)-1H-benzo[d][1,2,3]triazol-5-yl)-N(1-methyl-1H-pyrazol-5-yl)pyrimidin-2-amine] | – |
| – | < 100 nM | Cc1cnn(CCn2nnc3cc(-c4ccnc(Nc5ccnn5C)n4)ccc32)c1 [Example 103, 4-(1-(2-(4-methyl-1H-pyrazol-1-yl)ethyl)-1H-benzo[d][1,2,3]triazol-5-yl)-N-(1-methyl-1H-pyrazol-5-yl)pyrimidin-2-amine] | – |
| – | < 100 nM | COCCN1C[C@@H](n2nnc3cc(-c4ccnc(Nc5ccnn5C)n4)ccc32)[C@H](c2ccc(F)cc2)C1 [Example 87, 4-(1-((3S,4R)-4-(4-fluorophenyl)-1-(2-methoxyethyl)pyrrolidin-3-yl)-1H-benzo[d][1,2,3]triazol-5-yl)-N-(1-methyl-1H-pyrazol-5-yl)pyrimidin-2-amine] | – |
| – | < 100 nM | Cn1nccc1Nc1nccc(-c2ccc3c(c2)nnn3Cc2ccccc2C(F)(F)F)n1 [Example 122] | – |
| – | < 100 nM | Cn1nccc1Nc1nccc(-c2cnc3c(c2)nnn3Cc2ccc(Cl)c(F)c2)n1 [Example 119, 4-(3-(4-chloro-3-fluorobenzyl)-3H-(1,2,3]triazolo[4,5-b]pyridin-6-yl)-N-(1-methyl-1H-pyrazol-5-yl)pyrimidin-2-amine] | – |
| – | < 100 nM | COc1ncccc1Cn1nnc2cc(-c3ccnc(Nc4ccnn4C)n3)cnc21 [Example 126, 4-(3-((2-methoxypyridin-3-yl)methyl)-3H-[1,2,3]triazolo[4,5-b]pyridin-6-yl)-N-(1-methyl-1H-pyrazol-5-yl)pyrimidin-2-amine] | – |
| – | < 100 nM | CCC(C)Cn1nnc2cc(-c3ccnc(Nc4cnn(C)n4)n3)ccc21 (stereo not drawn) [Example 100, N-(2-methyl-2H-1,2,3-triazol-4-yl)-4-(1-(2-methylbutyl)-1H-benzo[d][1,2,3]triazol-5-yl)pyrimidin-2-amine] | – |
